Test results reported in patent US20120083861A1, “SELECTIVE ACTIVATION OF NEURONS BY SINUSOIDAL ELECTRIC STIMULATION” (THE GENERAL HOSPITAL CORPORATION, priority 2010, published 2012).
Entries after “also recorded” stand apart in the source; their conditions may differ.

Test system: retinal ganglion cells
Assay: Ganglion cell spiking response to electric stimulation near the soma with synaptic transmission blocked pharmacologically (cell-attached patch clamp, isolated retina)
Assay type: cell-based, rabbit
Settings: for maximum number of elicited spikes in control versus with synaptic blocker: 1 sec, plot control (x) vs blocker (y), FIG. 5c, 5d; for response to 10-Hz stimulation (spikes elicited): 10 Hz sinusoidal stimulus near soma; for stimulus threshold in blocker relative to control / effect of the blockers on stimulus threshold: 50 μM CNQX or 100 μM CdCl2, paired t-test; for response to 25-Hz stimulation (spikes elicited): 25 Hz sinusoidal stimulus near soma; for synaptically mediated response of ganglion cells to stimulation: stimulation at 5-25 Hz
Method: The present invention provides for responses to LFSS that are synaptic in origin. To determine whether presynaptic activation played a significant role in the high sensitivity of the soma region to LFSS, the response to stimulation near the soma was measured while synaptic transmission was blocked pharmacologically. The primary source of excitatory input to ganglion cells arises via glutamatergic release from the axon terminals of bipolar cells and is mediated through AMPA/kainate receptors on the ganglion cell dendrites.
The care and use of animals followed all federal and institutional guidelines, and all protocols were approved by the Institutional Animal Care and Use Committees of the Boston VA Healthcare System and/or the Subcommittee of Research Animal Care of the Massachusetts General Hospital. New Zealand White Rabbits (˜2.5 kg) were anesthetized with injections of xylazine/ketamine and subsequently euthanized with an intracardial injection of pentobarbital sodium. Immediately after death, the eyes were removed. All procedures following eye removal were performed under dim red illumination. The front of the eye was removed, the vitreous was eliminated. The retina was separated from the retinal pigment epithelium and mounted, photoreceptor side down, to a 10-mm square piece of Millipore filter paper (0.45 μm HA Membrane Filter) that was mounted with vacuum grease to the recording chamber (˜1.0 ml volume). A 2-mm circle in the center of the Millipore paper allowed light from below to be projected on to the photoreceptors.
Patch pipettes were used to make small holes in the inner limiting membrane, and ganglion cells with large somata were targeted under visual control. Spiking was recorded with a cell-attached patch electrode (4-8MΩ) filled with superfusate. For whole-cell recordings, the patch electrode was filled with (in mM): 113 CsMeSO4, 1 MgSO4, 7.8×10^−3 CaCl2, 0.1 BABTA, 10 HEPES, 4 ATP-Na2, 0.5 GTP-Na3, 5 lidocaine N-ethyl bromide (QX314-BR), 7.5 neurobiotin chloride, pH 7.2. […] Two silver-chloride coated silver wires served as the ground and were positioned at opposite edges of the recording chamber each approximately 15 mm from the targeted cell. The retina was continuously perfused at 4 mL/min with Ames' (pH 7.4) at 36° C., equilibrated with 95% O2 and 5% CO2. Pharmacological agents were applied to the bath by switching a 3-way stopcock to a 200 mL reservoir of Ames' containing one or more of the following blockers: 50 μM 6-cyano-7-nitroquinoxaline-2,3-dione (CNQX), 100 μM cadmium chloride (CdCl2).
Pulse and sinusoidal stimuli were controlled by Multi-Channel Systems STG2004 hardware and software. Two silver-chloride coated silver wires served as the return; each was positioned approximately 8 mm from the targeted cell and approximately 12 mm from each other. The height of the stimulating electrode remained fixed at 25 μm above the inner limiting membrane. The stimulating electrode was placed either directly over the sodium-channel band on the proximal axon, or ˜1 mm lateral to the soma directly over the distal axon. Because of the use of patch clamp, spikes were clearly visible through the stimulus artifact. The efficacy of various stimulation waveforms (0.2-ms pulses and 5-Hz to 100-Hz sinusoids) was tested for the two different electrode positions.
Pulsatile stimuli were biphasic pulses (equal and opposite rectangular phases) delivered at 10 pulses per second (phase duration: 200 μsec; interphase delay: 10 ms; cathodic phase first). The interphase delay was long enough for the neural response to the cathodic pulse to be completed before the onset of the anodic phase. For each stimulus amplitude, 15-30 pulses were delivered and there was a delay of >5 sec between stimulation epochs. Pulses of this duration and over the range of stimulus amplitudes produced either a single spike or no spike. If a spike was elicited, it immediately followed the cathodal pulse. […]

[1] = single blocker in bath: 50 μM CNQX or 100 μM CdCl2 alone
[2] = single blocker: 50 μM CNQX (n=6) or 100 μM CdCl2 (n=4)

N#Cc1cc2c(cc1[N+](=O)[O-])=NC(=O)C(=O)N=2 [CNQX, 6-cyano-7-nitroquinoxaline-2,3-dione]
maximum number of elicited spikes in control versus with synaptic blocker (10-Hz stimulation): largely clustered around the x-axis | response to 10-Hz stimulation (spikes elicited) [1]: greatly reduced; also recorded: completely eliminated | stimulus threshold in blocker relative to control (10 Hz stimulation): increased significantly | response to 25-Hz stimulation (spikes elicited) [2]: greatly reduced; also recorded: blocks much of this response | maximum number of elicited spikes in control versus with synaptic blocker (25 Hz stimulation): mostly scattered between the line of unity slope and the x-axis | stimulus threshold in blocker relative to control (25 Hz stimulation): increased significantly | maximum number of elicited spikes in control versus with synaptic blocker (100-Hz stimulation): largely clustered around the line of unity slope | effect of the blockers on stimulus threshold (100-Hz stimulation): not significant | synaptically mediated response of ganglion cells to stimulation (CNQX applied): greatly reduced

[Cl][Cd][Cl] [CdCl2, cadmium chloride]
maximum number of elicited spikes in control versus with synaptic blocker (10-Hz stimulation): largely clustered around the x-axis | response to 10-Hz stimulation (spikes elicited) (100 μM CdCl2 added to 50 μM CNQX, n=2/2): mostly eliminated | response to 10-Hz stimulation (spikes elicited) [1]: completely eliminated; also recorded: greatly reduced | stimulus threshold in blocker relative to control (10 Hz stimulation): increased significantly | response to 25-Hz stimulation (spikes elicited) (CNQX and CdCl2 both present (n=2)): greatly reduced | response to 25-Hz stimulation (spikes elicited) [2]: greatly reduced | maximum number of elicited spikes in control versus with synaptic blocker (25 Hz stimulation): mostly scattered between the line of unity slope and the x-axis | stimulus threshold in blocker relative to control (25 Hz stimulation): increased significantly | maximum number of elicited spikes in control versus with synaptic blocker (100-Hz stimulation): largely clustered around the line of unity slope | effect of the blockers on stimulus threshold (100-Hz stimulation): not significant | synaptically mediated response of ganglion cells to stimulation (cadmium applied in addition to CNQX): completely abolish
